Experimental data: patent US8969390B2, “Composition containing sorbitan monocaprylate and antimicrobial substances” (Clariant Finance (BVI) Limited, priority 2009, dated 2015)

How the values were obtained:
[1] = tested on: Pseudomonas aeruginosa, Staphylococcus aureus, Candida albicans and Aspergillus brasiliensis; experiment: Challenge test according to Ph. Eur. Chapter 5.1.3, overall preservation (all test organisms); type: cell-based; conditions: formulation A (cream)
Method: (§1) The following examples show results of challenge tests that were carried out according to the requirements of Ph. Eur. Chapter 5.1.3. The following test organisms are used here as representatives for microorganisms: Pseudomonas aeruginosa (gram-negative; abbreviated below as “P. a.”), Staphylococcus aureus (gram-positive; abbreviated below as “St. a.”), Candida albicans (yeast fungus; abbreviated below as “C. a.”) and Aspergillus brasiliensis (mold fungus; abbreviated below as “A. b.”). In a challenge test, a cosmetic, dermatological or pharmaceutical formulation is accurately considered as adequately preserved if all four test organisms are passed at least with a B criterion. An A criterion means an outstanding preservation, a B criterion, means an adequate preservation and with an F criterion the test is considered overall as not passed. As a comparison, an unpreserved sample of the respective formulation is additionally tested. The further abbreviations SC=sorbitan monocaprylate, Octopirox®=piroctone olamine apply below.
(§2) The assignment of the A, B and F criteria is directed by the level of the microorganism count reduction within a fixed time interval, in which only the logarithmic reduction is considered.

[2] = tested on: Aspergillus brasiliensis; experiment: Challenge test according to Ph. Eur. Chapter 5.1.3, Aspergillus brasiliensis; type: cell-based; conditions: formulation B (shampoo), use concentration 0.05% piroctone olamine
Method: as §1, §2

SMILES	adequate preservation of formulation A ([1]; 0.4% benzoic acid as individual antimicrobial active ingredient)	protection of formulation B against growth of mold fungi [2]	adequate preservation of formulation A ([1]; use concentration 0.05% piroctone olamine)
O=C(O)c1ccccc1 [Benzoic acid, benzoic acid, reference compound]	does not suffice	–	–
Cc1cc(CC(C)CC(C)(C)C)n(O)c(=O)c1.NCCO (stereo not drawn) [Octopirox ®, piroctone olamine]	–	cannot adequately protect	cannot be preserved adequately
